According to ChEMBL document CHEMBL3600366, “New 4-[(3-cyclohexyl-4-aryl-2,3-dihydro-1,3-thiazol-2-ylidene)amino]benzene-1-sulfonamides, synthesis and inhibitory activity toward carbonic anhydrase I, II, IX, XII” (Bioorg Med Chem Lett, 2015):

molecular target: Carbonic anhydrase 9 (Homo sapiens, UniProt Q16790); test: Inhibition of human carbonic anhydrase-9

Ki [nM] | SMILES
274 | NS(=O)(=O)c1ccc(/N=c2\scc(-c3ccc(F)cc3)n2C2CCCCC2)cc1
22.7 | Cc1ccc(-c2cs/c(=N\c3ccc(S(N)(=O)=O)cc3)n2C2CCCCC2)cc1
150 | NS(=O)(=O)c1ccc(/N=c2\scc(-c3cccs3)n2C2CCCCC2)cc1
354 | NS(=O)(=O)c1ccc(/N=c2\scc(-c3ccccc3)n2C2CCCCC2)cc1

The next lines start with the compound.

SMILES | Ki [nM]
NS(=O)(=O)c1ccc(/N=c2\scc(-c3ccc(Cl)cc3)n2C2CCCCC2)cc1 | 353
NS(=O)(=O)c1ccc(/N=c2\scc(-c3cccc([N+](=O)[O-])c3)n2C2CCCCC2)cc1 | 193
NS(=O)(=O)c1ccc(/N=c2\scc(-c3ccc(Cl)cc3Cl)n2C2CCCCC2)cc1 | 342
N#Cc1ccc(-c2cs/c(=N\c3ccc(S(N)(=O)=O)cc3)n2C2CCCCC2)cc1 | 29.5
NS(=O)(=O)c1ccc(/N=c2\scc(-c3ccc(F)cc3F)n2C2CCCCC2)cc1 | 85.5
NS(=O)(=O)c1ccc(/N=c2\scc(-c3ccc([N+](=O)[O-])cc3)n2C2CCCCC2)cc1 | 29.4
NS(=O)(=O)c1ccc(/N=c2\scc(-c3ccc(-c4ccccc4)cc3)n2C2CCCCC2)cc1 | 32.5
COc1ccc(-c2cs/c(=N\c3ccc(S(N)(=O)=O)cc3)n2C2CCCCC2)cc1 | 16.5

molecular target: Carbonic anhydrase 1 (Homo sapiens, UniProt P00915); test: Inhibition of human carbonic anhydrase-1
Sequence (P00915 whole entry): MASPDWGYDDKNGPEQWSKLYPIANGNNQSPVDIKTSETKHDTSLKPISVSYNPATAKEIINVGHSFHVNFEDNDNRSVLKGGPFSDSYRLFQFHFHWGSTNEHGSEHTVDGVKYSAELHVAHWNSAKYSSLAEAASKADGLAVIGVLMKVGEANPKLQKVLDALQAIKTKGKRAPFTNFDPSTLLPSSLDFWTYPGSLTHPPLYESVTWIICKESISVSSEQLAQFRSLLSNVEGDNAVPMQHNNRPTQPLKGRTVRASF

Ki [nM] | SMILES
> 10000 | NS(=O)(=O)c1ccc(/N=c2\scc(-c3ccc(Br)cc3)n2C2CCCCC2)cc1
